Assay results: the NIST ThermoML archive (doi:10.1016/j.jct.2005.01.017)
Values joined by “and” are separate entries in the source; they are usually repeats but may differ in a detail not shown here. Identical values can stand only once. Numbers after ± are expanded uncertainties.

Columns and labels:
[1] = 101 kPa, Liquid
[2] = xn = mol fraction of the nth substance listed; details: 101 kPa, Liquid, x1 = 1

| Compound | mass density ([1]; 293.15 K) [kg/m3] | mass density ([1]; 303.15 K) | mass density ([1]; 313.15 K) [kg/m3] | mass density ([1]; 323.15 K) [kg/m3] | mass density ([1]; 333.15 K) [kg/m3] | mass density ([1]; 343.15 K) [kg/m3] | mass density ([2]; 293.15 K) [kg/m3] | mass density ([2]; 303.15 K) [kg/m3] | mass density ([2]; 313.15 K) [kg/m3] | mass density ([2]; 323.15 K) [kg/m3] | mass density ([2]; 333.15 K) [kg/m3] | mass density ([2]; 343.15 K) [kg/m3] | mass density ([1]; 353.15 K) [kg/m3] | mass density ([2]; 353.15 K) [kg/m3] |
| --- | --- | --- | --- | --- | --- | --- | --- | --- | --- | --- | --- | --- | --- | --- |
| Cc1ccccc1C [1,2-dimethylbenzene] | 878.6 ± 40 | 872.25 ± 40 kg/m3 | 859.67 ± 40 | 840.84 ± 40 | 815.74 ± 40 | 784.38 ± 40 | – | – | – | – | – | – | – | – |
| Cc1ccccc1C [1,2-dimethylbenzene] + CC1COC(=O)O1 | – | – | – | – | – | – | 878.6 ± 40 | 872.25 ± 40 | 859.67 ± 40 | 840.84 ± 40 | 815.74 ± 40 | 784.38 ± 40 | – | – |
| Cc1cccc(C)c1 [1,3-dimethylbenzene] | 864.2 ± 1.9 | 855.76 ± 2 kg/m3 | 847.11 ± 2.1 | 838.27 ± 2.1 | 829.22 ± 2.2 | 819.97 ± 2.3 | – | – | – | – | – | – | 810.51 ± 2.3 | – |
| Cc1cccc(C)c1 [1,3-dimethylbenzene] + CC1COC(=O)O1 | – | – | – | – | – | – | 864.2 ± 40 | 855.76 ± 40 | 847.11 ± 40 | 838.27 ± 40 | 829.22 ± 40 | 819.97 ± 40 | – | 810.51 ± 40 |
| Cc1ccc(C)cc1 [1,4-dimethylbenzene] | 861 ± 1.8 | 852.28 ± 1.9 kg/m3 | 843.58 ± 1.9 | 834.92 ± 2 | 826.27 ± 2.1 | 817.66 ± 2.2 | – | – | – | – | – | – | 809.07 ± 2.2 | – |
| Cc1ccc(C)cc1 [1,4-dimethylbenzene] + CC1COC(=O)O1 | – | – | – | – | – | – | 861 ± 40 | 852.28 ± 40 | 843.58 ± 40 | 834.92 ± 40 | 826.27 ± 40 | 817.66 ± 40 | – | 809.07 ± 40 |
| CC1COC(=O)O1 (configuration not stated) [4-methyl-1,3-dioxolan-2-one] | 1200.25 ± 40 | 1180.55 ± 40 kg/m3 and 1180.56 ± 40 kg/m3 | 1161.28 ± 40 | 1142.43 ± 40 | 1123.99 ± 40 | 1105.98 ± 40 | – | – | – | – | – | – | 1088.38 ± 40 | – |
